This passage reports EC50 and IC50 results from patent US7888464B2, “Hepatitis C virus inhibitors” (Bristol-Myers Squibb Company, priority 2006, dated 2011).

The structures appear in SMILES notation. Some results are limits rather than exact numbers.

The term EC50 denotes the concentration that produces a half-maximal response.

The subject of test [1] is HCV replicon (strain 1b) in HUH-7 cells. In words: HCV replicon FRET assay. The class given is cell-based. Particulars: Hepatitis C virus, Huh-7, read-out: EC50 in the replicon FRET assay. The text has this: An HCV replicon whole cell system was established as described by Lohmann V, Korner F, Koch J, Herian U, Theilmann L, Bartenschlager R., Science 285(5424): 110-3 (1999). This system enabled us to evaluate the effects of our HCV Protease compounds on HCV RNA replication. Briefly, using the HCV strain 1b sequence described in the Lohmann paper (Assession number: AJ238799), an HCV cDNA was synthesized by Operon Technologies, Inc. (Alameda, Calif.), and the full-length replicon was then assembled in plasmid pGem9zf(+) (Promega, Madison, Wis.) using standard molecular biology techniques. The replicon consists of (i) the HCV 5′ UTR fused to the first 12 amino acids of the capsid protein, (ii) the neomycin phosphotransferase gene (neo), (iii) the IRES from encephalomyocarditis virus (EMCV), and (iv) HCV NS3 to NS5B genes and the HCV 3′ UTR. Plasmid DNAs were linearized with ScaI and RNA transcripts were synthesized in vitro using the T7 MegaScript transcription kit (Ambion, Austin, Tex.) according to manufacturer's directions. In vitro transcripts of the cDNA were transfected into the human hepatoma cell line, HUH-7. […] Resulting cell lines were characterized for positive and negative strand RNA production and protein production over time.
The HCV replicon FRET assay was developed to monitor the inhibitory effects of compounds described in the disclosure on HCV viral replication. HUH-7 cells, constitutively expressing the HCV replicon, were grown in Dulbecco's Modified Eagle Media (DMEM) (Gibco-BRL) containing 10% Fetal calf serum (FCS) (Sigma) and 1 mg/ml G418 (Gibco-BRL). Cells were seeded the night before (1.5×10^4 cells/well) in 96-well tissue-culture sterile plates. Compound and no compound controls were prepared in DMEM containing 4% FCS, 1:100 Penicillin/Streptomysin (Gibco-BRL), 1:100 L-glutamine and 5% DMSO in the dilution plate (0.5% DMSO final concentration in the assay). Compound/DMSO mixes were added to the cells and incubated for 4 days at 37° C. After 4 days, cells were first assessed for cytotoxicity using alamar Blue (Trek Diagnotstic Systems) for a CC50 reading. The toxicity of compound (CC50) was determined by adding 1/10th volume of alamar Blue to the media incubating the cells. After 4 h, the fluorescence signal from each well was read, with an excitation wavelength at 530 nm and an emission wavelength of 580 nm, using the Cytofluor Series 4000 (Perspective Biosystems). Plates were then rinsed thoroughly with Phosphate-Buffered Saline (PBS) (3 times 150 μl). The cells were lysed with 25 μl of a lysis assay reagent containing an HCV protease substrate (5× cell Luciferase cell culture lysis reagent (Promega #E153A) diluted to 1× with distilled water, NaCl added to 150 mM final, the FRET peptide substrate (as described for the enzyme assay above) diluted to 10 μM final from a 2 mM stock in 100% DMSO. The plate was then placed into the Cytofluor 4000 instrument which had been set to 340 nm excitation/490 nm emission, automatic mode for 21 cycles and the plate read in a kinetic mode. EC50 determinations were carried out as described for the IC50 determinations.
A general note: Replicon systems follow genome replication, usually without infectious particles.

The target in test [2] is T1, porcine pancreatic elastase (PPE) (Sus scrofa, UniProt P00772).
T1 construct: purchased Sigma, EMDbiosciences
T1 sequence (P00772 27-266): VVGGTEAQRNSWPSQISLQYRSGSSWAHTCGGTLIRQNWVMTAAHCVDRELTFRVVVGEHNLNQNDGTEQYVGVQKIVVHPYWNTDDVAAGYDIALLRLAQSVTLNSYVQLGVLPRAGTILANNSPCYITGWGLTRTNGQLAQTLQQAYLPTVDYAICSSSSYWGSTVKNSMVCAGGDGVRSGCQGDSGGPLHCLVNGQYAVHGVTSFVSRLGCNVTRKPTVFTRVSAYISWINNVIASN
In words: Specificity assay, pancreatic elastase. The format is biochemical. Conditions: read-out: PPE activity in the specificity assays. The protocol:
(§1) The specificities of compounds of the present disclosure were determined against a variety of serine proteases: human neutrophil elastase (HNE), porcine pancreatic elastase (PPE) and human pancreatic chymotrypsin and one cysteine protease: human liver cathepsin B. In all cases a 96-well plate format protocol using a fluorometric Amino-Methyl-Coumarin (AMC) substrate specific for each enzyme was used as described previously (PCT Patent Application No. WO 00/09543) with some modifications to the serine protease assays. All enzymes were purchased from Sigma, EMDbiosciences while the substrates were from Bachem, Sigma and EMDbiosciences.
(§2) Compound concentrations varied from 100 to 0.4 μM depending on their potency. The enzyme assays were each initiated by addition of substrate to enzyme-inhibitor pre-incubated for 10 min at room temperature and hydrolysis to 15% conversion as measured on cytofluor.
(§3) 50 mM Tris-HCl, pH 8.0, 50 mM NaCl, 0.1 mM EDTA, 3% DMSO, 0.02% Tween-20, 5 μM succ-AAPV-AMC and 20 nM HNE or 8 nM PPE;
(§4) The percentage of inhibition was calculated using the formula: [1−((UVinh−UVblank)/(UVctl−UVblank))]×100
(§5) A non-linear curve fit was applied to the inhibition-concentration data, and the 50% effective concentration (IC50) was calculated by the use of Excel XLfit software.

The subject of test [3] is HCV replicon (Renilla luciferase reporter) in HUH-7 cells. In words: HCV replicon luciferase reporter assay. The class given is cell-based. Conditions: Huh-7, read-out: EC50 in the replicon Luciferase assay. From the text:
An HCV replicon whole cell system was established as described by Lohmann V, Korner F, Koch J, Herian U, Theilmann L, Bartenschlager R., Science 285(5424): 110-3 (1999). This system enabled us to evaluate the effects of our HCV Protease compounds on HCV RNA replication. Briefly, using the HCV strain 1b sequence described in the Lohmann paper (Assession number: AJ238799), an HCV cDNA was synthesized by Operon Technologies, Inc. (Alameda, Calif.), and the full-length replicon was then assembled in plasmid pGem9zf(+) (Promega, Madison, Wis.) using standard molecular biology techniques. The replicon consists of (i) the HCV 5′ UTR fused to the first 12 amino acids of the capsid protein, (ii) the neomycin phosphotransferase gene (neo), (iii) the IRES from encephalomyocarditis virus (EMCV), and (iv) HCV NS3 to NS5B genes and the HCV 3′ UTR. […]
As a secondary assay, EC50 determinations from the replicon FRET assay were confirmed in a replicon luciferase reporter assay. […] Following 4 days in a 37° C./5% CO2 incubator, cells were analyzed for Renilla Luciferase activity using the Promega Dual-Glo Luciferase Assay System. […] Plates were read on a Packard TopCount NXT using a luminescence program.
The percentage inhibition was calculated using the formula below: […]
The values were graphed and analyzed using XLfit to obtain the EC50 value.

The target in test [4] is T2, human neutrophil elastase (HNE) (Homo sapiens, UniProt P08246).
T2 construct: purchased Sigma, EMDbiosciences
T2 sequence (P08246 30-267): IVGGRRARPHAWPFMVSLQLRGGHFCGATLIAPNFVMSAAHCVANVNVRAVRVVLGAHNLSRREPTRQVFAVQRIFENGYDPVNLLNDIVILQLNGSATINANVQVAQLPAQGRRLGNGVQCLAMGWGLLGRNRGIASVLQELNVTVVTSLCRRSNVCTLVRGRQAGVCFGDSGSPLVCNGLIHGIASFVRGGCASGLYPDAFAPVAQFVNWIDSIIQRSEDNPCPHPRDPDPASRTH
In words: Specificity assay, neutrophil elastase. Particulars: read-out: HLE activity in the specificity assays. The format is biochemical. The protocol: as §1, §2, §3, §4, §5

`C=C[C@@H]1C[C@]1(NC(=O)[C@@H]1C[C@@](O)(c2ccc(-c3ccccc3)cc2)CN1C(=O)[C@@H](NC(=O)OC(C)(C)C)C(C)(C)C)C(=O)NS(=O)(=O)C1CC1` [Compound 3]: the concentration for a half-maximal effect (EC50) came to 0.011 µM in test [1] and 0.0014 µM in test [3]. The IC50 in test [2] is over 100 µM; in test [4] it was 82 µM.
